Test results published in patent US5854252A, “Dihalotriazolopyrimidine derivatives” (Shell Internationale Research Maatschappij B.V., priority 1993, dated 1998).
Values after ≈ are worked out from the molar mass of the structure shown.

Key:
Leptosphaeria nodorum = test: Activity against wheat leafspot (LN), Example 54(e); type: in vivo; settings: therapeutic foliar spray as under (a) (600 ppm)
Experimental: The test is a direct therapeutic one using a foliar spray. Wheat seedlings (cv Norman), at the single leaf stage, are inoculated with an aqueous suspension containing 1.5×10^6 conidia/ml. The inoculated plants are kept for 24 hours at 20° C. in a high humidity cabinet, followed by spraying with the test compound as described under (a). After drying, the plants are kept for 6-8 days in the glasshouse at 22° C. and 70% relative humidity. Assessment is based on the density of lesions per leaf compared with that on leaves of control plants. The extent of disease control in all the above tests is expressed as a rating compared with either an untreated control or a diluent-sprayed-control, according to the criteria: […]

Puccinia arachidis = test: Field pot test with Puccinia arachidis on peanuts; type: in vivo; settings: topical, 456 h, 500 μg/ml spray, 1000 l/ha, 19 days after treatment, Abbott formula, read-out: % efficacy Puccinia arachidis
Experimental: 15 seeds of peanuts were sown in pots filled with a soil substrate. When the plants have developed 4 true leaves the fungicides and the test compounds were applied using a hand sprayer. The test compounds were applied at a concentration of 500 μg/ml in a […] containing 10% acetone and 0.05% Triton X 155 in water. The total amount of […] corresponded to 1000 l/ha. Six replicates per treatment were used. 2 Days after treatment the pots were exposed to peanut plants in the field on which the fungus, Puccinia arachidis, had formed sporulating pustules on the leaves. The assessment was carried out 19 days after treatment by estimating the percentage of infected leaf area. The % efficacy was calculated using the Abbott formula.

Pyricularia oryzae = type: in vivo; settings: rice, therapeutic foliar spray, 1000 ppm
Cercospora arachidicola = test: Field pot test with Cercospora arachidicola on peanuts; type: in vivo; settings: Mycosphaerella arachidis, topical, 360 h, 500 μg/ml spray, 1000 l/ha, 15 days after treatment, Abbott formula, read-out: % efficacy Cercospora arachidicola
Experimental: 15 Seeds of peanuts were sown in pots filled with a soil substrate. When the plants have developed 4 true leaves (approx. 12-14 days after seeding) the fungicides and the test compounds were applied using a hand sprayer. The test compounds were applied at a concentration of 500 μg/ml in a […] containing 10% acetone and 0.05% Triton X 155 in water. The total amount of […] corresponded to 1000 l/ha. Six replicates (pots) per treatment were used. 2 days after treatment the pots were exposed to peanut plants in the field on which the fungus, Cercospora arachidicola, had formed sporulating lesions. The assessment was carried out 15 days after treatment by estimating the percentage of infected leaf area. The % efficacy was calculated using the Abbott formula.

[1] = tested on: Pseudocercosporella herpotrichoides; test: Activity against wheat eyespot in-vitro (PHI), Example 53(j); type: cell-based; settings: 50 ppm, 12 days at 20° C.
Experimental: This test measures the in vitro activity of compounds against the fungus causing wheat eyespot. The test compound is dissolved or suspended in acetone and is added into 4 ml aliquots of half strength Potato Dextrose Broth dispensed in 25-compartment petri dishes to give a final concentration of 50 ppm compound and 2.5% acetone. Each compartment is inoculated with a 6 mm diameter plug of agar/mycelium taken from a 14 day old culture of P. herpotrichoides. Plates are incubated at 20° C. for 12 days until the assessment of mycelial growth. The extent of disease control in all the above tests is expressed as a rating compared with either an untreated control or a diluent-sprayed-control, according to the criteria: […]

Plasmopara viticola [2] = test: Antisporulant activity against vine downy mildew (PVA), Example 53(a); type: in vivo; settings: antisporulant foliar spray, 1000 ppm
Experimental: The test is a direct antisporulant one using a foliar spray. The lower surface of leaves of whole vine plants (cv Cabernet Sauvignon) are inoculated by spraying with an aqueous suspension containing 2.5×10^4 zoosporangia/ml two days prior to treatment with the test compound. The inoculated plants are kept for 24 hours in a high humidity compartment, then 24 hours at glasshouse ambient temperature and humidity. Infected leaves are sprayed on their lower surfaces with a solution of active material in 1:1 water/acetone containing 0.04% "TWEEN 20" (Trade Mark; a polyoxyethylene sorbitan ester surfactant). Plants are treated using an automated sprayline with an atomising nozzle. The concentration of the compound is 1000 ppm, and the spray volume is 700 l/ha. After spraying, the plants are returned to normal glasshouse conditions for 96 hours and are then transferred to the high humidity cabinet for 24 hours to induce sporulation, prior to assessment. Assessment is based on the percentage of the leaf area covered by sporulation compared with that on control leaves. The extent of disease control in all the above tests is expressed as a rating compared with either an untreated control or a diluent-sprayed-control, according to the criteria: […]

[3] = tested on: Pseudocercosporella herpotrichoides; test: MIC by serial dilution, Example 55, Pseudocercosporella herpotrichoides; type: cell-based; settings: Oculimacula yallundae; microtitre plates, 20° C., 6-8 days
Experimental: (§1) The MIC (Minimum Inhibition Concentration)-values were determined by serial dilution tests using 48-well microtitre plates. The dilution of the test compounds in the nutrient solution and the distribution to the wells were carried out by a TECAN RSP 5000 robotic sample processor.
(§2) For preparation of the nutrient solution, V8 juice (Trade Mark) was neutralised with calcium carbonate and centrifuged. The supernatant was diluted with distilled water (1:5) to the final concentration.
(§3) The fungi (Alternaria solani, Botrytis cinerea, Pseudocercosporella herpotrichoides, Micronectriella nivalis, Gaeumannomyces graminis) were added into the wells as a droplet of spore suspension. The microtitre plates were then incubated at 20° C. for 6-8 days. The MIC-value, which was defined to be the lowest concentration in the dilution series without mycelial growth, was determined by visual inspection of the plates.

[4] = tested on: Erysiphe graminis f.sp. hordei; test: Activity against barley powdery mildew (EG), Example 53(h); type: in vivo; settings: therapeutic foliar spray, 1000 ppm
Experimental: The test is a direct therapeutic one, using a foliar spray. Leaves of barley seedlings, (cv. Golden Promise) are inoculated by dusting with mildew conidia one day prior to treatment with the test compound. The inoculated plants are kept overnight at glasshouse ambient temperature and humidity prior to treatment. The plants are sprayed with the test compound at a dosage of 1000 ppm using an automated sprayline as described under (a). After drying, plants are returned to a compartment at 20°-25 ° C. and moderate humidity for up to 7 days, followed by assessment. Assessment is based on the percentage of leaf area covered by sporulation compared with that on leaves of control plants. The extent of disease control in all the above tests is expressed as a rating compared with either an untreated control or a diluent-sprayed-control, according to the criteria: […]

Gaeumannomyces graminis = test: MIC by serial dilution, Example 55, Gaeumannomyces graminis; type: cell-based; settings: microtitre plates, 20° C., 6-8 days
Experimental: as §1, §2, §3

Micronectriella nivalis = test: MIC by serial dilution, Example 55, Micronectriella nivalis; type: cell-based; settings: microtitre plates, 20° C., 6-8 days
Experimental: as §1, §2, §3

Plasmopara viticola [5] = test: Antisporulant activity against vine downy mildew (PVA), Example 54(a); type: in vivo; settings: antisporulant foliar spray, 600 ppm
Experimental: The test is a direct antisporulant one using a foliar spray. The lower surface of leaves of vine plants (cv. Cabernet Sauvignon), approximately 8 cm high, are inoculated with an aqueous suspension containing 5×10^4 zoosporangia/ml. The inoculated plants are kept for 24 hours at 21° C. in a high humidity cabinet, then for 24 hours in a glasshouse at 20° C. and 40% relative humidity. Infected leaves are sprayed on their lower surfaces with a solution of the test compound in 1:1 water/acetone containing 0.04% "TWEEN 20" (Trade Mark; a polyoxyethylene sorbitan ester surfactant). Plants are sprayed using a track sprayer equipped with 2 air-atomising nozzles. The concentration of the compound is 600 ppm and the spray volume is 750 l/ha. After drying, the plants are returned to the glasshouse at 20° C. and 40% relative humidity for 96 hours and are then transferred to the high humidity cabinet for 24 hours to induce sporulation. Assessment is based on the percentage of the leaf area covered by sporulation compared with that on control leaves. The extent of disease control in all the above tests is expressed as a rating compared with either an untreated control or a diluent-sprayed-control, according to the criteria: […]

Structure (SMILES)	LN (disease control rating) (Leptosphaeria nodorum)	Fungicidal Activity PHI (disease control rating) [1]	MIC [3] [µg/mL]	MIC (Gaeumannomyces graminis) [µg/mL]	MIC (Micronectriella nivalis) [µg/mL]	also measured
Clc1ccccc1-c1c(Br)nc2ncnn2c1Br [Example 2, 5,7-dibromo-6-(2-chlorophenyl)-1,2,4-triazolo[1,5a]pyrimidine]	1 (50-80% disease control)					
CC(C)c1ccc(-c2c(Cl)nc3ncnn3c2Cl)cc1 [Example 8]		2 (greater than 80% disease control)				pest or weed control at 500 µg/mL (Puccinia arachidis): 17%; Fungicidal Activity PO (disease control rating) (Pyricularia oryzae): 1 (about 50-80% disease control); pest or weed control at 500 µg/mL (Cercospora arachidicola): 33%
Clc1nc2ncnn2c(Cl)c1-c1ccccc1OCc1ccccc1 [Example 20]		1 (about 50-80% disease control)				Fungicidal Activity PVA (disease control rating) (Plasmopara viticola [2]): 2 (greater than 80% disease control)
Clc1nc2ncnn2c(Cl)c1-c1cccs1 [Example 26]		2 (greater than 80% disease control)	6.25 (≈ 23.1 µM)	0.39 (≈ 1.44 µM)	0.78 (≈ 2.88 µM)	Fungicidal Activity EG (disease control rating) [4]: 1 (about 50-80% disease control)
Cc1ccccc1-c1c(Cl)nc2ncnn2c1Cl [Example 29]			12.5 (≈ 44.8 µM)	1.56 (≈ 5.59 µM)	6.25 (≈ 22.4 µM)	PVA (disease control rating) (Plasmopara viticola [5]): 1 (50-80% disease control)
Clc1ccc(-c2c(Cl)nc3ncnn3c2Cl)c(Cl)c1 [Example 35]	1 (50-80% disease control)		6.25 (≈ 18.7 µM)	0.39 (≈ 1.17 µM)	0.39 (≈ 1.17 µM)	
